# Results from US10160785B2, “Antimicrobial peptides and their use for the treatment of topical infections” (priority 2015, dated 2018).
# Assays:
# [1] = system: Candida albicans ATCC MYA-2876; experiment: microbe, parasite or virus in culture; assay type: cell-based; conditions: RPMI broth microdilution, 35° C., 48 hours, visual
# Protocol: (§1) All yeasts Candida albicans (Olomouc) and ATCC MYA-2876, Candida glabrata ATCC 2001 and DSY 565, Candida dubliniensis ATCC MYA-646, Candida krusei ATCC 6258 and Candida tropicalis ATCC 750 were sub-cultured from sterile vials onto Sabouraud dextrose agar, which was composed of 40 g dextrose (Penta, Czech Republic), 10 g peptone (OXOID, Great Britain) and 17 g agar (OXOID), dissolved in 1 l of distilled water, and cultivated for 24 hours at 35° C.
# (§2) All strains were stored in a way that minimizes the possibility of mutation. Candida spp. were grown overnight in liquid YPD medium which is composed of 10 g yeast extract (DIFCO, USA), 20 g peptone (OXOID), and 20 g dextrose (Penta) dissolved in 1 l distilled water. Then the overnight culture was cryogenically preserved by suspending in 50% glycerol solution (1:1) in small vials and stored at −80° C.
# (§3) The inoculum was prepared by picking five colonies from 24-hour-old cultures of Candida spp. The colonies were suspended in 1 ml of sterile saline solution and vortexed for 15 seconds. Optical density of the suspension was adjusted spectrophotometrically by adding sterile saline solution to produce optical density of 0.18 at 600 nm. A working suspension was made by a 1:50 dilution followed by a 1:20 dilution of the stock suspension with RPMI 1640 broth medium which was composed of L-glutamine without NaHCO3 (BioSera, France), and with 0.165 mol.l^−1 MOPS (Duchefa, Netherland)—further as RPMI broth medium.
# (§4) The broth microdilution test was performed by using sterile, disposable, multi-well microdilution plates (96-well). The peptides in the concentrations 0.625-160 μmol.l^−1 were pipetted into the wells in 100 μl volumes. Each well of the plate was inoculated with 100 μl of the diluted inoculum suspension. Final yeast density in each well was 5×10^2 up to 2.5×10^3 CFU/ml. The microdilution plates were incubated without shaking at 35° C. and observed for the presence or absence of visible growth for 48 hours.
# (§5) Drug-free medium without inoculation served as negative control; the growth positive control contained inoculated drug-free medium. Amphotericin B was used as control drug to ensure quality of Candida strains.
# (§6) The minimal inhibition concentrations (MICs) were visually determined 48 hours after inoculation. The MIC values were defined as the lowest concentration in which no observable growth is noticeable.
# (§7) All yeast isolates were obtained from the Institute of Physiology of the Academy of Sciences of the Czech Republic. Candida albicans (Olomouc) came from the Faculty of Medicine and Dentistry, Palacý University Olomouc.
# [2] = system: Candida dubliniensis ATCC MYA-646; experiment: microbe, parasite or virus in culture; assay type: cell-based; conditions: RPMI broth microdilution, 35° C., 48 hours, visual
# Protocol: as §1, §2, §3, §4, §5, §6, §7
# [3] = system: Candida glabrata ATCC 2001; experiment: microbe, parasite or virus in culture; assay type: cell-based; conditions: RPMI broth microdilution, 35° C., 48 hours, visual
# Protocol: as §1, §2, §3, §4, §5, §6, §7
# [4] = system: Candida albicans (Olomouc); experiment: microbe, parasite or virus in culture; assay type: cell-based; conditions: RPMI broth microdilution, 35° C., 48 hours, visual
# Protocol: as §1, §2, §3, §4, §5, §6, §7
# [5] = system: Candida krusei ATCC 6258; experiment: microbe, parasite or virus in culture; assay type: cell-based; conditions: RPMI broth microdilution, 35° C., 48 hours, visual
# Protocol: as §1, §2, §3, §4, §5, §6, §7
# [6] = system: Candida glabrata DSY 565; experiment: microbe, parasite or virus in culture; assay type: cell-based; conditions: RPMI broth microdilution, 35° C., 48 hours, visual
# Protocol: as §1, §2, §3, §4, §5, §6, §7
# [7] = system: Candida tropicalis ATCC 750; experiment: microbe, parasite or virus in culture; assay type: cell-based; conditions: RPMI broth microdilution, 35° C., 48 hours, visual
# Protocol: as §1, §2, §3, §4, §5, §6, §7
# [8] = in vitro; conditions: human
# Method in brief: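 Hemolysis expressed as LC50, the concentration giving 50% erythrocyte lysis. Supernatant A540 was scaled between buffer-only blank and 0.2% Triton X100 total lysis after 1 h, 37 °C exposure of 5% v/v human red cells to 2-200 μmol.l^−1 peptide in physiological solution.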
# [9] = system: S. aureus (Liberec); experiment: Synergistic effect of peptides with antibiotics, FIC index; assay type: cell-based, Staphylococcus aureus; conditions: peptide combined with amoxicillin; FIC <0.5 synergism, 0.5-2 additive, >2 antagonism; averages of three experiments
# Protocol: (§8) MICs values of various combinations of two fold serial dilutions of peptides and antibiotics were determined using the same methodology as in the case of antimicrobial activity determination (Example 2). To consider the type of the final effect, FIC indexes (fractional inhibitory concentration) were used and calculated as follows:
# (§9) [formula] where MICPC and MICAC are the MICs of the peptide and antibiotic in combination, respectively, and MICP and MICA are the MICs of the peptide and antibiotic tested alone, respectively. FIC<0.5 were considered as synergy, 0.5≤FIC≤2 as addition effect, and FIC>2 as antagonism.
# [10] = system: P. aeruginosa (Liberec); experiment: as above; assay type: cell-based, Pseudomonas aeruginosa; conditions: FIC <0.5 synergism, 0.5-2 additive, >2 antagonism, averages of three experiments; for FIC indexes (fractional inhibitory concentration) Combination with RIF against P. aeruginosa: peptide combined with rifampicin; for FIC indexes (fractional inhibitory concentration) Combination with TET against P. aeruginosa: peptide combined with tetracycline
# Protocol: as §8, §9
# [11] = system: Pseudomonas aeruginosa 5482; conditions: 37° C., 20 h
# Protocol: (§10) Gram-positive bacteria (Micrococcus luteus, Bacillus subtilis, Staphylococcus aureus, Staphylococcus epidermidis and Enterococcus faecalis), Gram-negative bacteria (Escherichia coli and Pseudomonas aeruginosa) and the yeast (Candida albicans) were grown to exponential phase and then were diluted with fresh medium. BHI medium (Oxoid, Great Britain) was used for Enterococcus faecalis; YPD medium containing yeast extract peptone and glucose was used for Candida albicans and LB medium (Sigma, Czech Republic) was used for the remaining microorganisms. Then the microorganisms were added to the solutions of the tested antimicrobial peptides in LB medium in multi-well plates. The final peptide concentration it the wells was in the range of 0.1 to 100 μmol.l^−1. That was made by twofold serial dilution from the peptide stock solution (1 mmol.l^−1). The plates were incubated at 37° C. for 20 h while being continuously shaken in a Bioscreen C (Oy Growth Curves AB Ltd., Helsinki, Finland). Absorbance was measured at 540 nm every 15 min. Antimicrobial activity (Table 2) was determined as a quantitative minimum inhibitory concentration (MIC) by observing bacterial growth in the presence of different concentrations of tested peptides. In the experiments ca 10^5 CFU of bacteria or candida per well were routinely used.
# (§11) Multiresistant clinical isolates of bacteria were obtained from University Hospital in Motol, Prague, Czech Republic and from Liberec Regional Hospital, Czech Republic. Methicillin resistant Staphylococcus aureus (MRSA) 6271 and Pseudomonas aeruginosa 5482 were from the Czech National Collection of Type Cultures, the National Institute of Public Health, Prague, Czech Republic. Other bacteria were from the Czech Collection of Microorganisms, Brno, Czech Republic. Candida albicans came from the Faculty of Medicine, Palacky University, Olomouc, Czech Republic.
# [12] = system: Pseudomonas aeruginosa Liberec; conditions: Pseudomonas aeruginosa Liberec; 37° C., 20 h
# Protocol: as §10, §11
# [13] = system: Staphylococcus aureus Motol; conditions: Staphylococcus aureus Motol clinical isolate; 37° C., 20 h
# Protocol: as §10, §11
# [14] = system: Candida albicans Olomouc; conditions: Candida albicans Olomouc; YPD medium; 37° C., 20 h (Example 2)
# Protocol: as §10, §11
# [15] = system: Escherichia coli; conditions: 37° C., 20 h
# Protocol: as §10, §11
# [16] = system: Enterococcus faecalis Motol; conditions: BHI medium, 37° C., 20 h
# Protocol: as §10, §11
# [17] = system: Methicillin resistant Staphylococcus aureus (MRSA) 6271; conditions: 37° C., 20 h
# Protocol: as §10, §11
# [18] = system: Staphylococcus aureus Liberec; conditions: Staphylococcus aureus Liberec clinical isolate; 37° C., 20 h
# Protocol: as §10, §11
# [19] = system: Micrococcus luteus; conditions: Micrococcus luteus; 37° C., 20 h
# Protocol: as §10, §11
# [20] = system: Bacillus subtilis; conditions: Bacillus subtilis; 37° C., 20 h
# Protocol: as §10, §11
# [21] = system: Staphylococcus epidermidis Motol; conditions: 37° C., 20 h
# Protocol: as §10, §11
Substance,Antifungal activity MIC C. albicans ATCC MYA-2876 [1],Antifungal activity MIC C. dubliniensis ATCC MYA-646 [2],Antifungal activity MIC C. glabrata ATCC 2001 [3],Antifungal activity MIC C. albicans Olomouc [4],Antifungal activity MIC C. krusei ATCC 6258 [5],Antifungal activity MIC C. glabrata DSY 565 [6],Antifungal activity MIC C. tropicalis ATCC 750 [7],HC50 at 1 h [8],FIC indexes (fractional inhibitory concentration) Combination with RIF against P. aeruginosa [10],Antimicrobial activity MIC P. a. 5482 [11],Antimicrobial activity MIC P. a. Liberec [12],Antimicrobial activity MIC S. a. Motol [13],Antimicrobial activity MIC C. a. Olomouc [14],Antimicrobial activity MIC E. c. [15],Antimicrobial activity MIC E. f. Motol [16],Antimicrobial activity MIC S. a. 6271 [17],Antimicrobial activity MIC S. a. Liberec [18],Antimicrobial activity MIC M. l. [19],Antimicrobial activity MIC B. s. [20],Antimicrobial activity MIC S. e. Motol [21],other results
H-KILSSLLKKLKKIIAK-NH2 [VI],20.0 µM,12.0 µM,28.0 µM,12.0 µM,4.8 µM,71.1 µM,0.9 µM,364 µM,0.260,5.0 µM,16.0 µM,10.0 µM,25.3 µM,16.0 µM,32.5 µM,32.0 µM,5.5 µM,1.0 µM,1.3 µM,1.4 µM,FIC indexes (fractional inhibitory concentration) Combination with AMX against S. aureus [9]: 0.292; FIC indexes (fractional inhibitory concentration) Combination with TET against P. aeruginosa [10]: 0.708
H-GILSSLLKKWKKIIAK-NH2 [XVI],26.0 µM,40.0 µM,40.0 µM,18.0 µM,10.0 µM,231.1 µM,1.0 µM,> 400 µM,0.417,5.0 µM,7.1 µM,20.3 µM,10.5 µM,7.5 µM,100.0 µM,20.0 µM,8.8 µM,2.0 µM,1.6 µM,2.7 µM,FIC indexes (fractional inhibitory concentration) Combination with TET against P. aeruginosa [10]: 0.583
H-GIMSSLMKKLAAHIKK-NH2 [VIII],20.0 µM,36.0 µM,26.0 µM,17.0 µM,10.0 µM,66.7 µM,1.1 µM,–,–,23.0 µM,46.0 µM,90.0 µM,5.0 µM,20.0 µM,>100 µM,85.3 µM,76.7 µM,1.6 µM,2.8 µM,11.3 µM,–
